As a reminder, the IC50 is the concentration at which inhibition is half-maximal.

For experiment [1], the target named is T1, von Hippel-Lindau disease tumor suppressor/Ubiquitin carboxyl-terminal hydrolase 7 (Homo sapiens, UniProt Q93009+P40337). Briefly: PROTACT activity at USP7/VHL in human RS4;11 cells assessed as protein degradation at 10 nM measured after 6 hrs in presence of proteasome inhibitors PS-341 by Western blot analysis. It is filed as cell-based.
Experiment [2] concerns RS4-11. Description: Antiproliferative activity against human RS4-11 cells with shp53 assessed as cell viability measured after 7 days by PMS-MTS assay. Conditions: RS4-11, 168 h. The experiment is classed as functional, cell-based. A general note: Tetrazolium dyes change colour on reduction, which living cells bring about.
Experiment [3] deals with T1, von Hippel-Lindau disease tumor suppressor/Ubiquitin carboxyl-terminal hydrolase 7. Briefly: PROTACT activity at USP7/VHL in human OCI-Ly10 cells assessed as protein degradation at 10 to 100 nM measured after 12 hrs by Western blot analysis. The experiment is classed as cell-based. Conditions: dose 10-100 nM. (Immunoblotting shows a protein as a band on a membrane.)

Experiment [4] has the same target. Briefly: PROTACT activity at USP7/VHL in human RS4;11 cells assessed as protein degradation at 10 to 100 nM measured after 12 hrs by Western blot analysis. The note with it: dose 10-100 nM. The experiment is classed as cell-based.
Experiment [5] deals with RS4-11. Briefly: Upregulation of p53 protein expression in human RS4-11 cells measured after 12 hrs incubation by Western blot analysis. The experiment is classed as functional, cell-based. The note with it: dose 10-100 nM.
In experiment [6] the test system is RS4-11. Briefly: Antiproliferative activity against human RS4-11 cells with wild type p53 assessed as cell viability measured after 3 days by PMS-MTS assay. Conditions: RS4-11, 72 h. The experiment is classed as functional, cell-based.
Experiment [7] relates to RS4-11. Description: Induction of apoptosis in human RS4-11 cells assessed as necrotic cells at 1 nM measured after 72 hrs by FITC-annexin-V/PI analysis (reference value: 0%). It is filed as functional.
Experiment [8] has as its system RS4-11. Description: Antitumor activity against human RS4-11 cells xenografted in NOD/SCID mouse model assessed as tumor growth inhibition at 10 mg/kg, ip daily measured after 18 days relative to control. The experiment is classed as functional. The note with it: RS4-11, 432 h, time 18 day, read-out: TGI. (In general: In xenograft studies the graft and the host belong to different species.)

In experiment [9] the test system is RS4-11. Description: Upregulation of p21 protein expression in human RS4-11 cells measured after 12 hrs incubation by Western blot analysis. It is filed as functional, cell-based. Conditions: dose 10-100 nM.
Experiment [10] relates to RS4-11. Description: Induction of apoptosis in human RS4-11 cells assessed as late apoptotic cells at 1000 nM measured after 72 hrs by FITC-annexin-V/PI analysis (reference value: 3.23%). The experiment is classed as functional.

Calls of active or inactive are those of the source. The rule behind the calls is not given here. Where only a bound is given, the exact number is not on record here.

T1 sequence (P40337 whole entry, looked up): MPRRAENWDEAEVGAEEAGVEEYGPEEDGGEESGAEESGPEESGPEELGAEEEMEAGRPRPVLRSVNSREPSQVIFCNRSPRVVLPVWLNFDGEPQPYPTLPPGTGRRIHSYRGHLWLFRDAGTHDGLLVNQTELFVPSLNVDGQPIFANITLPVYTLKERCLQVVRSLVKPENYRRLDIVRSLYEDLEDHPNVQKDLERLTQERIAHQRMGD
T1 sequence (Q93009 whole entry, looked up): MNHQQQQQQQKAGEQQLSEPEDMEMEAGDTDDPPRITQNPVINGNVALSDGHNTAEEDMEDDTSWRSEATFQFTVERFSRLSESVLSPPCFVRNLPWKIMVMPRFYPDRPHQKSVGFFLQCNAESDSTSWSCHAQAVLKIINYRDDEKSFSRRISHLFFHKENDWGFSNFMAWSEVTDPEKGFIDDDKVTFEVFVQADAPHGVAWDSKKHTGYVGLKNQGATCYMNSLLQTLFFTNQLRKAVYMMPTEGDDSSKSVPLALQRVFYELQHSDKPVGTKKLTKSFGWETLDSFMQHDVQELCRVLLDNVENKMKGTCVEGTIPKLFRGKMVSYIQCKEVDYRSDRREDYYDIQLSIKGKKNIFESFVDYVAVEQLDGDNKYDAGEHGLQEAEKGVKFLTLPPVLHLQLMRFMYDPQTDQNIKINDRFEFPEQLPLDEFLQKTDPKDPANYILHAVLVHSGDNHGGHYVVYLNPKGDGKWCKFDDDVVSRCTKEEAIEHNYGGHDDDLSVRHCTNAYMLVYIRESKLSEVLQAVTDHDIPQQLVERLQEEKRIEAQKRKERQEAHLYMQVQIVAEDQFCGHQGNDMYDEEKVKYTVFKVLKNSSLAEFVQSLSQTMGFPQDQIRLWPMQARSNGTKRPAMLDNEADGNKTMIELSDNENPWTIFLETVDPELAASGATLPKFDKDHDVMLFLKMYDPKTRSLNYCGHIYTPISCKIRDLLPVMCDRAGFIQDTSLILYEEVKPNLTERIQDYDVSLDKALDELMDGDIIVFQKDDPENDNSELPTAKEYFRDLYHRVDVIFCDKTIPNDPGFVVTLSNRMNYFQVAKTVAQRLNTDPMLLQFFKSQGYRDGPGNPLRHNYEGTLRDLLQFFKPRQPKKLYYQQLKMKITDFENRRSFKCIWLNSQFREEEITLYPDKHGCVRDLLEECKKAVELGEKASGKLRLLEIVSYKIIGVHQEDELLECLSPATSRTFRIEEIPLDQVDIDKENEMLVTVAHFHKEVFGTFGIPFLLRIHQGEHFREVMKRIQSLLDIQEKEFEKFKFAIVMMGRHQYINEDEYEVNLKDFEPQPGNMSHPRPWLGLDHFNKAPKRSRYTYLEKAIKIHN

Consider `Cc1ncsc1-c1ccc([C@H](C)NC(=O)[C@@H]2C[C@@H](O)CN2C(=O)[C@@H](c2cc(N3CCN(Cc4ccc(-c5c6ncn(CC7(O)CCN(C(=O)C[C@@H](C)c8ccccc8)CC7)c(=O)c6nn5C)cc4)CC3)no2)C(C)C)cc1`, for which the result in [1] was inactive. The figures for the IC50 in the experiment with RS4-11 [2] and in the experiment on RS4-11 [6] were greater than 20000 nM and 0.5 nM, respectively. Also, the result in experiment [3] and in experiment [4] was Active. Besides, the Activity result is “Dose-Dependent Effect” with RS4-11 [5], 0% in the experiment on RS4-11 [7], “Dose-Dependent Effect” in the experiment on RS4-11 [9] and 24.89% with RS4-11 [10]. Also, the inhibition in vivo at 10 mg/kg in the experiment on RS4-11 [8] came out at 60.8%.
